This note sets out measurements from PubChem BioAssay (NCI).

Some test systems named below: HCT-15 colon; SW-620 colon; MOLT-4 leukemia; SF-268 CNS; K-562 leukemia; UACC-257 melanoma; COLO 205 colon; SK-MEL-2 melanoma; UACC-62 melanoma; UO-31 renal; SNB-19 CNS; ACHN renal; HS 578T breast; T-47D breast; HT29 colon; SK-MEL-5 melanoma; MDA-N; SF-295 CNS; CAKI-1 renal.
Assay in all cases: NCI-60 cell line screen, 48 h

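Briefly, cells in 96-well plates were exposed to five compound concentrations for 48 h, and endpoints were estimated by linear interpolation. TGI denotes the concentration required for complete inhibition of growth.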 Where a SMILES comes first, the peptide text is derived from it. The star is where a group is joined. Boc = CC(C)(C)OC(=O)*

For the compound `N#CC(c1ccccc1)N(CCc1ccccc1)C(=O)Oc1ccccc1` (stereo not given), the TGI with HCT-15 colon, in the test with SW-620 colon, in the test on MOLT-4 leukemia, in the test with SF-268 CNS, with K-562 leukemia and in the test on UACC-257 melanoma was more than 100 µM throughout. The TGI in the test with COLO 205 colon, in the test with SK-MEL-2 melanoma, in the test with UACC-62 melanoma, in the test on UO-31 renal, in the test with SNB-19 CNS and in the test on ACHN renal was more than 100 µM in each case. Further, the TGI with HS 578T breast, with T-47D breast, in the test with HT29 colon, in the test with SK-MEL-5 melanoma, in the test with MDA-N and in the test on SF-295 CNS was more than 100 µM throughout. The same compound came in with a TGI with CAKI-1 renal of more than 100 µM.

In the case of `Cc1ccccc1NC(=O)C(=O)Cc1cnc2ccccc2n1`, the TGI with HCT-15 colon, in the test with SW-620 colon, in the test with MOLT-4 leukemia, with SF-268 CNS, in the test with K-562 leukemia and in the test on UACC-257 melanoma was more than 100 µM in each case. For the same compound, the TGI with COLO 205 colon, in the test with SK-MEL-2 melanoma, in the test on UACC-62 melanoma, in the test on UO-31 renal, with SNB-19 CNS and in the test on ACHN renal was more than 100 µM in each case. Besides, the TGI in the test on HS 578T breast, with T-47D breast, with HT29 colon, with SK-MEL-5 melanoma, in the test on MDA-N and with SF-295 CNS was more than 100 µM each time. This compound registered a TGI in the test with CAKI-1 renal of more than 100 µM.

As for `CCOC(=O)C(CC(C)C)NC(=O)C(Cc1ccccc1)NC(=O)CNC(=O)OC(C)(C)C` (stereo not drawn) (Boc-Gly-Phe-Leu-OEt; configuration not given here), the TGI in the test on HCT-15 colon was 35.8 µM; with SW-620 colon, 39.9 µM; with MOLT-4 leukemia, 30.6 µM; in the test on SF-268 CNS it was 43.3 µM; in the test with K-562 leukemia, 49 µM; with UACC-257 melanoma it was 36.3 µM. Also, the TGI is 99.4 µM in the test with SK-MEL-2 melanoma; 35.9 µM in the test with UACC-62 melanoma; more than 100 µM in the test on UO-31 renal; more than 100 µM in the test with SNB-19 CNS; 30.8 µM in the test with ACHN renal; 96 µM in the test on HS 578T breast. Also, the TGI was 61 µM with T-47D breast; 32.4 µM in the test on HT29 colon; 36.8 µM with SK-MEL-5 melanoma; 28.4 µM in the test with MDA-N; 78.5 µM in the test with SF-295 CNS; 23.2 µM in the test on CAKI-1 renal.

For the compound `O=C1N[C@@H]2c3c(Br)sc(Br)c3C(=O)[C@@H]2N1`, the TGI with HCT-15 colon was 11.1 µM; in the test on SW-620 colon, 4.33 µM; in the test with MOLT-4 leukemia, 9.08 µM; in the test on SF-268 CNS it was 13.8 µM; in the test on K-562 leukemia, more than 100 µM; in the test on UACC-257 melanoma, 8.19 µM. The TGI stood at 12.1 µM in the test on COLO 205 colon; 13.7 µM with SK-MEL-2 melanoma; 15.4 µM in the test on UACC-62 melanoma; 9.93 µM in the test on UO-31 renal; 26.2 µM with SNB-19 CNS; 14.1 µM with ACHN renal. For the same compound, the TGI in the test on HS 578T breast was found to be 37 µM; in the test with T-47D breast it was 21.5 µM; with HT29 colon, 9.01 µM; in the test with SK-MEL-5 melanoma, 23.9 µM; in the test on MDA-N, 5.04 µM; in the test with SF-295 CNS it was 29.5 µM. The TGI in the test on CAKI-1 renal came out at 8.56 µM.

In the case of `Cc1cc(C)c2c(c1)C(=O)C1(C2)Cc2c(ccc(C)c2C)C1=O` (stereo not given), the TGI in the test with HCT-15 colon, in the test on SW-620 colon, in the test with MOLT-4 leukemia, in the test with SF-268 CNS, in the test with K-562 leukemia and with UACC-257 melanoma was more than 100 µM in each case. Moreover, the TGI in the test on COLO 205 colon, in the test on SK-MEL-2 melanoma, in the test on UACC-62 melanoma, in the test on UO-31 renal, in the test with SNB-19 CNS and in the test with ACHN renal was more than 100 µM each time. Moreover, the TGI in the test with HS 578T breast, in the test on T-47D breast, in the test with SK-MEL-5 melanoma, in the test on MDA-N, in the test on SF-295 CNS and in the test on CAKI-1 renal was more than 100 µM throughout.

In the case of `COP(=O)(C(/C=C/c1ccccc1)OC(C)=O)[C@@H]1CCCC[C@H]1N(CC(C)(C)C)C(C)=O` (stereo not given in full), the TGI turned out to be 61.6 µM in the test with HCT-15 colon; 41.2 µM in the test with SW-620 colon; 27.7 µM in the test with MOLT-4 leukemia; 40.8 µM in the test with SF-268 CNS; 53 µM in the test on K-562 leukemia; 31 µM with UACC-257 melanoma. Moreover, the TGI is 27.1 µM with COLO 205 colon; 29.8 µM with SK-MEL-2 melanoma; 28 µM with UACC-62 melanoma; 27.9 µM with UO-31 renal; more than 100 µM in the test on SNB-19 CNS; 30.7 µM in the test with ACHN renal. Also, the TGI is 31.1 µM with HS 578T breast; 32.6 µM with T-47D breast; 28 µM in the test on HT29 colon; 27.3 µM in the test on SK-MEL-5 melanoma; 36.7 µM with MDA-N; 39.9 µM with SF-295 CNS. The compound further showed a TGI in the test with CAKI-1 renal of 92.6 µM.

Take `c1ccc2nc3cc4c(cc3nc2c1)NC12CCCCC1CC1=C(CCCC1)N42` (stereo not given): the TGI was more than 10 µM in the test on HCT-15 colon; more than 10 µM in the test on SW-620 colon; 5.25 µM in the test with MOLT-4 leukemia; more than 10 µM in the test with SF-268 CNS; 5.5 µM in the test with K-562 leukemia; 7.03 µM in the test with UACC-257 melanoma. Moreover, the TGI in the test with COLO 205 colon is 3.6 µM; in the test on SK-MEL-2 melanoma it was 9.53 µM; in the test on UACC-62 melanoma, 9.63 µM; in the test on SNB-19 CNS it was more than 10 µM; in the test on ACHN renal, more than 10 µM; in the test on HS 578T breast, 8.04 µM. Moreover, the TGI in the test with T-47D breast was more than 10 µM; in the test with HT29 colon, more than 10 µM; with SK-MEL-5 melanoma, 5.16 µM; in the test with MDA-N it was 7.06 µM; with SF-295 CNS, more than 10 µM; with CAKI-1 renal it was more than 10 µM.
